Results on 4 molecules are retold here after US12594296B2, “Methods for treatment or prevention of damage resulting from radiation, trauma or shock” (priority 2012, dated 2026).

The subject of one experiment is Clostridium perfringens. Format: in vivo, chicks.
For a further experiment, the system named is A431 epidermal cells. Put plainly: Scratch healing of confluent A431 epidermal cell monolayer. Format: cell-based. The conditions noted are these: serum free DMEM; 24, 48, 72 or 96 hours. The procedure: A431 epidermal cells were seeded into 4-well chamber slides in DMEM plus 10% FBS at a density to be confluent the next day (5×10^5/well (˜1.8 cm^2)). The following day, a scratch was made across the confluent monolayer using a sterile 10 μl tip. The medium was aspirated and the wells rinsed with DMEM to remove floating debris. Serum free DMEM was added to all wells, plus or minus PAAG (18 kD, 25% functionalization) or EGF as a positive control. Cells were treated for 24, 48, 72 or 96 hours. Cells were fixed with paraformaldehyde at the indicated times and stained with hematoxylin for better visualization. A representative scratch at time 0 is duplicated at the top of each column of treatments for comparison depicted in FIG. 13.

“Also recorded” adds a separate entry of the source. Where two headings read alike, the source gives them in different places. Bridge positions count the residues as written; N and C are the ends. Square brackets hold non-standard residues; d marks the D form. Peptide text beside a SMILES is read from it. * marks the point of attachment. Ileψ(thiazoline)Cys = CC[C@H](C)[C@H](N)C1=N[C@H](C(=O)*)CS1; dOrn = NCCC[C@@H](N)C(=O)O

Turning to `CC[C@H](C)[C@H](N)C1=N[C@H](C(=O)N[C@@H](CC(C)C)C(=O)N[C@H](CCC(=O)O)C(=O)N[C@H](C(=O)N[C@H]2CCCCNC(=O)[C@H](CC(N)=O)NC(=O)[C@@H](CC(=O)O)NC(=O)[C@H](Cc3cnc[nH]3)NC(=O)[C@@H](Cc3ccccc3)NC(=O)[C@H]([C@@H](C)CC)NC(=O)[C@@H](CCCN)NC2=O)[C@@H](C)CC)CS1` [Bacitracin, reference compound] ({Ileψ(thiazoline)Cys}-L[dE]IK[dOrn]I[dF]H[dD]N; lactam 4-C), the “mortality relative to control” value with Clostridium perfringens (ad libitum in water, PAAG at 100 ppm) was “reduced mortality with statistical significance; also recorded: reduced morality with statistical significance”.
“EGF: EGF as a positive control [reference compound]”: the healing of scratches entry in the experiment with A431 epidermal cells is given as “faster than control”.
As to “poly (acetyl, arginyl) glucosamine [PAAG (18 kD, 25% functionalization)]”, the healing of scratches entry with A431 epidermal cells is recorded as “faster than control”.
For the molecule “poly (acetyl, arginyl) glucosamine [PAAG (22 kD, 36% functionalization)]”, in the experiment on Clostridium perfringens (in vivo), the “mortality relative to control” value was “reduced mortality with statistical significance; also recorded: reduced morality with statistical significance” and the treated animals died is 15%.
